Reference: patent US7875647B2, “Heteroaryl-pyrazole derivatives as cannabinoid CB1 receptor antagonists” (Green Cross Corporation, priority 2006, dated 2011)

Target: T1, Cannabinoid-1 receptor (CB1R) (Rattus norvegicus, UniProt P20272)
T1 construct: The tissue obtained from the brain of SD rats was homogenized; from tissue; host or cells: brain of SD rats (membrane pellet of the homogenate)
Assay: Cannabinoid-1 receptor (CB1R) binding affinity assay ([3H]CP-55940, rat CB-1 receptor binding protocol)
Settings: IC50(nM), brain tissue of SD rats, [3H]CP-55940, 30° C. 60 min
Procedure: The tissue obtained from the brain of SD rats was homogenized with a Dounce homogenate system in TME (50 mM Tris, 3 mM MgCl2 and 1 mM EDTA, pH 7.4) at 4° C., and the homogenate was centrifuged at 48,000 g for 30 min. at 4° C. The pellet was resuspended in 5 ml of TME and the suspension was divided into aliquots and stored at −70° C. until its use in the following assay.
The tissue concentrations were determined by Bradford protein analysis, and 148 μl of brain tissue of the required concentration was added to the plate. The plate was covered and placed in a 30° C. incubator for 60 min, and then transformed on GF/B filtermat pretreated in polyethylenimine (PEI) using a cell harvester. Each filter was washed five times and dried at 60° C. for 1 hr. Then, the degree of radioactivity retained by the filter was measured using Wallac Microbeta™ (PerkinElmer Life Sciences, Inc., Massachusetts, U.S.A.) and the activity of the compound for inhibiting CB1 receptor was determined therefrom.

T1 sequence (P20272 whole entry): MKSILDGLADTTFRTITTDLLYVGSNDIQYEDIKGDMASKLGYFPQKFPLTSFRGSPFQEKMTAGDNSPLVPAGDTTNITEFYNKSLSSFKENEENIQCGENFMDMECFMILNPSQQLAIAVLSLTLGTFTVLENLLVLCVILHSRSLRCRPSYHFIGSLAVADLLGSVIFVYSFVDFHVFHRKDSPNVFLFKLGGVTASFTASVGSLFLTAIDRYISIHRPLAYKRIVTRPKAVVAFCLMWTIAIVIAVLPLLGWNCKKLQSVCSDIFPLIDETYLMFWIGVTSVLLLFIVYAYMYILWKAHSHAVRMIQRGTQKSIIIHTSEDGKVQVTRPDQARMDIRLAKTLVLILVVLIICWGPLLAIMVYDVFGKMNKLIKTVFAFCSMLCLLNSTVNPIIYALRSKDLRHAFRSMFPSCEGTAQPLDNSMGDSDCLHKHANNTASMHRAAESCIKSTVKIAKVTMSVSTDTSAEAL

| Compound | IC50 |
| --- | --- |
| C=C(C)c1c(-c2nnc(C(C)(C)C)o2)nn(-c2ccc(Cl)cc2Cl)c1-c1ccc(Br)cc1 [Example 220, 2-(5-(4-bromophenyl)-1-(2,4-dichlorophenyl)-4-(prop-1-en-2-yl)-1H-pyrazol-3-yl)-5-tert-butyl-1,3,4-oxadiazole] | 8.26 nM |
| Cc1c(-c2nc3c(o2)CCCC3)nn(-c2ccc(Cl)cc2Cl)c1-c1ccc(Cl)cc1 [Example 642, 2-(5-(4-chlorophenyl)-1-(2,4-dichlorophenyl)-4-methyl-1H-pyrazol-3-yl)-4,5,6,7-tetrahydrobenzo[d]oxazole] | 44.2 nM |

Same assay, conditions: brain tissue of SD rats, [3H]CP-55940, 30° C. 60 min; read-out: IC50

| IC50 | Compound |
| --- | --- |
| 6.43 nM | CCc1c(-c2nnc(C3(c4cccc(Cl)c4)CC3)s2)nn(-c2ccc(Cl)cc2Cl)c1-c1ccc(Cl)cc1 [Example 494, 2-(5-(4-chlorophenyl)-1-(2,4-dichlorophenyl)-4-ethyl-1H-pyrazol-3-yl)-5-(1-(3-chlorophenyl)cyclopropyl)-1,3,4-thiadiazole] |
| 5.94 nM | CCc1c(-c2nnc(C3(Cc4ccccc4)CC3)s2)nn(-c2ccc(Cl)cc2Cl)c1-c1ccc(Br)cc1 [Example 468, 2-(1-benzylcyclopropyl)-5-(5-(4-bromorophenyl)-1-(2,4-dichlorophenyl)-4-ethyl-1H-pyrazol-3-yl)-1,3,4-thiadiazole] |
| 2.89 nM | COc1ccc(C2(c3nnc(-c4nn(-c5ccc(Cl)cc5Cl)c(-c5ccc(Cl)cc5)c4Cn4cncn4)o3)CC2)cc1 [Example 319, 2-(4-((1H-1,2,4-triazol-1-yl)methyl)-5-(4-chlorophenyl)-1-(2,4-dichlorophenyl)-1H-pyrazol-3-yl)-5-(1-(4-methoxyphenyl)cyclopropyl)-1,3,4-oxadiazole] |
| 8.31 nM | COCc1c(-c2nnc(C(C)(C)C)s2)nn(-c2ccc(Cl)cc2Cl)c1-c1ccc(Br)cc1 [Example 524, 2-(5-(4-bromophenyl)-1-(2,4-dichlorophenyl)-4-(methoxymethyl)-1H-pyrazol-3-yl)-5-tert-butyl-1,3,4-thiadiazole] |
| 150 nM | Clc1ccc(-c2c(Cl)c(-c3nnc(C4CCC4)o3)nn2-c2ccc(Cl)cc2Cl)cc1 [Example 333, 2-(4-chloro-5-(4-chlorophenyl)-1-(2,4-dichlorophenyl)-1H-pyrazol-3-yl)-5-cyclobutyl-1,3,4-oxadiazole] |
| 41.5 nM | CC(C)NCc1c(-c2nnc(C(C)(C)C)o2)nn(-c2ccc(Cl)cc2Cl)c1-c1ccc(Cl)cc1 [Example 295, N-((3-(5-tert-butyl-1,3,4-oxadiazol-2-yl)-5-(4-chlorophenyl)-1-(2,4-dichlorophenyl)-1H-pyrazol-4-yl)methyl)propan-2-amine] |
| 10 nM | COc1ccc(-c2c(C)c(-c3nnc(C4(c5ccc(Cl)cc5)CC4)o3)nn2-c2ccc(Cl)cc2Cl)cc1 [Example 138, 2-(1-(4-chlorophenyl)cyclopropyl)-5-(1-(2,4-dichlorophenyl)-5-(4-methoxyphenyl)-4-methyl-1H-pyrazol-3-yl)-1,3,4-oxadiazole] |
| 16.7 nM | CC(=O)OCc1c(-c2nnc(C(C)(C)C)s2)nn(-c2ccc(Cl)cc2Cl)c1-c1ccc(Cl)cc1 [Example 521, (3-(5-tert-butyl-1,3,4-thiadiazol-2-yl)-5-(4-chlorophenyl)-1-(2,4-dichlorophenyl)-1H-pyrazol-4-yl)methyl acetate] |
| 231 nM | Cc1c(-c2nnc(-c3ccccc3)s2)nn(-c2ccc(Cl)cc2Cl)c1-c1ccc(Cl)cc1 [Example 356, 2-(5-(4-Chlorophenyl)-1-(2,4-dichlorophenyl)-4-methyl-1H-pyrazol-3-yl)-5-phenyl-1,3,4-thiadiazole] |
| 388 nM | Cc1c(-c2nc(C3CCCCC3)n(C)n2)nn(-c2ccc(Cl)cc2Cl)c1-c1ccc(Cl)cc1 [Example 624, 3-(5-(4-chlorophenyl)-1-(2,4-dichlorophenyl)-4-methyl-1H-pyrazol-3-yl)-5-cyclohexyl-1-methyl-1H-1,2,4-triazole] |
| 389 nM | Cc1c(-c2n[nH]c(-c3cccs3)n2)nn(-c2ccc(Cl)cc2Cl)c1-c1ccc(Cl)cc1 [Example 614, 3-(5-(4-Chlorophenyl)-1-(2,4-dichlorophenyl)-4-methyl-1H-pyrazol-3-yl)-5-(thiophen-2-yl)-1H-1,2,4-triazole] |
| 14.5 nM | CCc1c(-c2nnc(C3(C)CCCCC3)s2)nn(-c2ccc(Cl)cc2Cl)c1-c1ccc(Br)cc1 [Example 455, 2-(5-(4-bromophenyl)-1-(2,4-dichlorophenyl)-4-ethyl-1H-pyrazol-3-yl)-5-(1-methylcyclohexyl)-1,3,4-thiadiazole] |
| 13.9 nM | Cc1c(-c2nnc(C3(c4ccc(Cl)cc4)CC3)s2)nn(-c2ccc(Cl)cc2Cl)c1-c1ccc(Cl)cc1 [Example 430, 2-(5-(4-chlorophenyl)-1-(2,4-dichlorophenyl)-4-methyl-1H-pyrazol-3-yl)-5-(1-(4-chlorophenyl)cyclopropyl)-1,3,4-thiadiazole] |
| 18.8 nM | CCc1c(-c2nnc(C3(c4ccc(C)cc4)CC3)s2)nn(-c2ccc(Cl)cc2Cl)c1-c1ccc(Br)cc1 [Example 474, 2-(5-(4-bromophenyl)-1-(2,4-dichlorophenyl)-4-ethyl-1H-pyrazol-3-yl)-5-(1-p-tolylcyclopropyl)-1,3,4-thiadiazole] |
| 20.4 nM | Cc1c(-c2nnc(CC3CCCCC3)s2)nn(-c2ccc(Cl)cc2Cl)c1-c1ccc(Cl)cc1 [Example 365, 2-(5-(4-Chlorophenyl)-1-(2,4-dichlorophenyl)-4-methyl-1H-pyrazol-3-yl)-5-(cyclohexylmethyl)-1,3,4-thiadiazole] |
| 101 nM | Cc1c(-c2nnn(C(C)C)n2)nn(-c2ccc(Cl)cc2Cl)c1-c1ccc(Cl)cc1 [Example 576, 5-(5-(4-Chlorophenyl)-1-(2,4-dichlorophenyl)-4-methyl-1H-pyrazol-3-yl)-2-isopropyl-2H-tetrazole] |
| 13.4 nM | CCCC(C)c1nnc(-c2nn(-c3ccc(Cl)cc3Cl)c(-c3ccc(Cl)cc3)c2C)s1 (stereo not drawn) [Example 368, 2-(5-(4-Chlorophenyl)-1-(2,4-dichlorophenyl)-4-methyl-1H-pyrazol-3-yl)-5-(pentan-2-yl)-1,3,4-thiadiazole] |
| 2.88 nM | Clc1ccc(-c2c(Cn3cncn3)c(-c3nnc(C4(c5ccccc5)CCCC4)s3)nn2-c2ccc(Cl)cc2Cl)cc1 [Example 514, 2-(4-((1H-1,2,4-triazol-1-yl)methyl)-5-(4-chlorophenyl)-1-(2,4-dichlorophenyl)-1H-pyrazol-3-yl)-5-(1-phenylcyclopentyl)-1,3,4-thiadiazole] |
| 2.89 nM | FC(F)(F)C1(c2nnc(-c3nn(-c4ccc(Cl)cc4Cl)c(-c4ccc(Cl)cc4)c3Cn3cncn3)s2)CCC1 [Example 512, 2-(4-((1H-1,2,4-triazol-1-yl)methyl)-5-(4-chlorophenyl)-1-(2,4-dichlorophenyl)-1H-pyrazol-3-yl)-5-(1-(trifluoromethyl)cyclobutyl)-1,3,4-thiadiazole] |
| 11.1 nM | CCCc1c(-c2nnc(C3(c4ccc(Cl)cc4)CCC3)o2)nn(-c2ccc(Cl)cc2Cl)c1-c1ccc(Cl)cc1 [Example 187, 2-(5-(4-chlorophenyl)-1-(2,4-dichlorophenyl)-4-propyl-1H-pyrazol-3-yl)-5-(1-(4-chlorophenyl)cyclobutyl)-1,3,4-oxadiazole] |
| 8.02 nM | CCCCC(C)(C)c1nnc(-c2nn(-c3ccccc3Cl)c(-c3ccc(Cl)cc3)c2C)s1 [Example 415, 2-(1-(2-chlorophenyl)-5-(4-chlorophenyl)-4-methyl-1H-pyrazol-3-yl)-5-(2-methylhexan-2-yl)-1,3,4-thiadiazole] |
| 22.2 nM | CC(C)(c1ccc(Cl)cc1)c1nnc(-c2nn(-c3ccc(Cl)cc3Cl)c(-c3ccc(Cl)cc3)c2Br)o1 [Example 343, 2-(4-bromo-5-(4-chlorophenyl)-1-(2,4-dichlorophenyl)-1H-pyrazol-3-yl)-5-(2-(4-chlorophenyl)propan-2-yl)-1,3,4-oxadiazole] |
| 34.9 nM | Cc1c(-c2nnc(C3(C(C)(C)O)CC3)o2)nn(-c2ccc(Cl)cc2Cl)c1-c1ccc(Cl)cc1 [Example 287, 2-(1-(5-(5-(4-chlorophenyl)-1-(2,4-dichlorophenyl)-4-methyl-1H-pyrazol-3-yl)-1,3,4-oxadiazol-2-yl)cyclopropyl)propan-2-ol] |
| 15.2 nM | Cc1c(-c2nnc(C(C)(C)C3CCCCC3)o2)nn(-c2ccc(Cl)cc2Cl)c1-c1ccc(Cl)cc1 [Example 64, 2-(5-(4-chlorophenyl)-1-(2,4-dichlorophenyl)-4-methyl-1H-pyrazol-3-yl)-5-(2-cyclohexylpropan-2-yl)-1,3,4-oxadiazole] |

| Compound | IC50 |
| --- | --- |
| CCn1nnnc1-c1nn(-c2ccc(Cl)cc2Cl)c(-c2ccc(Cl)cc2)c1C [Example 569, 5-(5-(4-Chlorophenyl)-1-(2,4-dichlorophenyl)-4-methyl-1H-pyrazol-3-yl)-1-ethyl-1H-tetrazole] | 202 nM |
| CCCCOCc1c(-c2nnc(C(C)(C)C)o2)nn(-c2ccc(Cl)cc2Cl)c1-c1ccc(Cl)cc1 [Example 206, 2-(4-(butoxymethyl)-5-(4-chlorophenyl)-1-(2,4-dichlorophenyl)-1H-pyrazol-3-yl)-5-tert-butyl-1,3,4-oxadiazole] | 113 nM |
| 2-(5-(4-chlorophenyl)-1-(2,4-dichlorophenyl)-4-methyl-1H-pyrazol-3-yl)-5-cyclohexyl-1,3,4-thiadiazole [Example 347] | 51.3 nM |
| CCCCOC(C)(C)c1nnc(-c2nn(-c3ccc(Cl)cc3Cl)c(-c3ccc(Cl)cc3)c2C)s1 [Example 457, 2-(2-butoxypropan-2-yl)-5-(5-(4-chlorophenyl)-1-(2,4-dichlorophenyl)-4-methyl-1H-pyrazol-3-yl)-1,3,4-thiadiazole] | 16.9 nM |
